Data as given in US8263585B2, “Organic compounds” (Novartis AG, priority 2007, dated 2012).

What follows are molecules tested against T1, human PI 3-Kγ (Homo sapiens, UniProt P48736) (assay: in vitro kinase assay (Scintillation Proximity Assay): transfer of terminal phosphate of ATP to phosphatidylinositol). Conditions: recombinant GST-p110γ, 12.5 μM ATP assay mix, 60 minutes room temperature.
T1 construct: Residues 38-1102 of human PI 3-Kγ are subcloned; made in house; host or cells: Sf9 (Spodoptera frugiperda) insect cells, baculovirus
Type: biochemical
Description: Baculovirus expressing different fragments of human PI 3-Kγ fused to glutathione S-transferase (GST) have been previously described by Stoyanova, S., Bulgarelli-Leva, G., Kirsch, C., Hanck, T., Klinger, R., Wetzker, R., Wymann, M. P. (1997) Lipid- and protein kinase activities of G protein-coupled PI 3-kinase g: structure-activity analysis and interactions with wortmannin. Biochem. J., 324:489. Residues 38-1102 of human PI 3-Kγ are subcloned into the BamH1 and EcoR1 sites of the transfer vector pAcG2T (Pharmingen) to create a GST-PI 3-Kγ lacking the first 37 residues of PI 3-Kγ. To express the recombinant protein, Sf9 (Spodoptera frugiperda 9) insect cells are routinely maintained at densities between 3×10^5 and 3×10^6 cells/ml in serum containing TNMFH medium (Sigma). Sf9 cells, at a density of 2×10^6 are infected with human […] baculovirus at a multiplicity of infection (m.o.i.) of 1 for 72 hours. The infected cells are harvested by centrifugation at 1400 g for 4 minutes at 4° C. and the cell pellets are frozen at −80° C. Both Sf9 and Sf21 cells work equally well. Sf9 cells (1×10^9) are resuspended in 100 ml cold (4° C.) lysis buffer (50 mM Tris-HCl pH 7.5, 1% Triton X-100, 150 mM NaCl, 1 mM NaF, 2 mM DTT and protease inhibitors. Cells are incubated on ice for 30 minutes then centrifuged at 15000 g for 20 minutes at 4° C. Purification of the supernatant sample is carried out at 4° C. by affinity chromatography using SEPHAROSE™ agarose gel beads coupled to glutathione (from Amersham Pharmacia Biotech). A cell lysate/GST resin ratio of 50:1 is used. The GST resin is firstly pre-rinsed to remove ethanol preservative and then equilibrated with lysis buffer. Cell lysate (supernatant) is added (usually as 50 ml lysate to 1 ml GST resin in 50 ml tubes) and gently rotated on a mixer at 4° C. for 2-3 hours. The unbound flow through sample is collected by centrifugation at 1000 g for 5 minutes at 4° C. using a DENLEY™ centrifuge. The 1 ml GST resin containing bound material is transferred to a 15 ml FALCON™ centrifuge tube for subsequent washing and elution steps. Firstly a series of 3 cycles of washings (mixing by gentle inversion) is performed with 15 ml ice cold wash Buffer A (50 mM Tris-HCl pH 7.5, 1% Triton X-100, 2 mM DTT) interspersed with centrifugation at 1000 g for 5 minutes at 4° C. A final single wash step is performed with 15 ml ice cold wash Buffer B (50 mM Tris-HCl pH 7.5, 2 mM DTT) and then centrifuged at 1050 g for 5 minutes at 4° C. The washed GST resin is finally eluted with 4 cycles of 1 ml ice cold elution buffer (50 mM Tris-HCl pH 7.5, 10 mM reduced glutathione, 2 mM DTT, 150 mM NaCl, 1 mM NaF, 50% ethylene glycol and protease inhibitors) interspersed with centrifugation at 1000 g for 5 minutes at 4° C. Samples are aliquoted and stored at −20° C.
An in vitro kinase assay was established that measures the transfer of the terminal phosphate of adenosine triphosphate to phosphatidylinositol. The kinase reaction is performed in a white 96 well microtitre plate as a Scintillation Proximity Assay. Each well contains 10 μl test compound in 5% dimethylsulphoxide and 20 μl assay mix (40 mM Tris, 200 mM NaCl, 2 mM ethyleneglycol-aminoethyl-tetraacetic acid (EGTA), 15 μg/ml phosphatidylinositol, 12.5 μM adenosine triphosphate (ATP), 25 mM MgCl2, 0.1 μCi [^33P]ATP). The reaction is started by the addition of 20 μl of enzyme mix (40 mM Tris, 200 mM NaCl, 2 mM EGTA containing recombinant GST-p110γ). […]

T1 sequence (P48736 38-1102): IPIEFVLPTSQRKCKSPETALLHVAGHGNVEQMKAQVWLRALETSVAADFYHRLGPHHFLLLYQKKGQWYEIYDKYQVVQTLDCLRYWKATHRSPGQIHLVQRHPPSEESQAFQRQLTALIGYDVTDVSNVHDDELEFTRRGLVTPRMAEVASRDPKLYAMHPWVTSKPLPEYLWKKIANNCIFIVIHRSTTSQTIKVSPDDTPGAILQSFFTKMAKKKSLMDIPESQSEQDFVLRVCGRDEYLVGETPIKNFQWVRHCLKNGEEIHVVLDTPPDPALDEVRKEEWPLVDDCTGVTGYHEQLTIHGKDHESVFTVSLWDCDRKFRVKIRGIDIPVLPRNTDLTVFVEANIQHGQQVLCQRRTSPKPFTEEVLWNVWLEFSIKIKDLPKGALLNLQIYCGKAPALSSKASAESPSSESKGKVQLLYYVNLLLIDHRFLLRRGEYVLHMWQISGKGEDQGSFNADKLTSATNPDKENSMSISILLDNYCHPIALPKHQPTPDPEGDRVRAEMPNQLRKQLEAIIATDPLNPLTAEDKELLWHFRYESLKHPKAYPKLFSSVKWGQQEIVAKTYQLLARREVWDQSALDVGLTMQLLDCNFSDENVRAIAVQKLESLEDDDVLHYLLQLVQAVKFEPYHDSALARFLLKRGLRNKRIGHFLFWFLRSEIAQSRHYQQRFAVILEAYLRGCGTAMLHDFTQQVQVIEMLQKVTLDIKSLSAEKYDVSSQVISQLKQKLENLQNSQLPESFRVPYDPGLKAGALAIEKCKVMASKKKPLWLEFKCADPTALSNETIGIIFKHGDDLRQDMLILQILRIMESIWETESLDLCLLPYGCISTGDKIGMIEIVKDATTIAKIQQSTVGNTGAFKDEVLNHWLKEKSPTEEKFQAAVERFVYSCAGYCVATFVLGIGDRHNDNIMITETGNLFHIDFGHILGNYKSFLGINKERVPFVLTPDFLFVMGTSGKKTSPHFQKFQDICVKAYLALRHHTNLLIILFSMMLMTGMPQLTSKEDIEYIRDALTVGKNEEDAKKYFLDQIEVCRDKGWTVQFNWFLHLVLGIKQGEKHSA

Row | SMILES | IC50
1 | Cc1nc(N)ncc1-c1ccc(Cl)c(S(=O)(=O)Nc2ccccc2)c1 [Example 1-1, 5-(2-Amino-4-methyl-pyrimidin-5-yl)-2-chloro-N-phenyl-benzenesulfonamide] | 0.004 µM
2 | Cc1nc(N)ncc1-c1ccc(Cl)c(S(=O)(=O)N(C)C)c1 [Example 1-15, 5-(2-Amino-4-methyl-pyrimidin-5-yl)-2-chloro-N2N-dimethyl-benzenesulfonamide] | 0.239 µM
3 | Cc1nc(N)ncc1-c1ccc(Cl)c(S(=O)(=O)N2CC(O)C2)c1 [Example 1-30, 1-[5-(2-Amino-4-methyl-pyrimidin-5-yl)-2-chloro-benzenesulfonyl]-azetidin-3-ol] | 0.135 µM
4 | Cc1nc(N)ncc1-c1ccc(Cl)c(NS(=O)(=O)c2ccccc2)c1 [Example 1-50, N-[5-(2-Amino-4-methyl-pyrimidin-5-yl)-2-chloro-phenyl]-benzenesulfonamide] | 0.05 µM
5 | Cc1nc(N)ncc1-c1ccnc(C(C)(C)C)n1 [Example 2-1, 2-tert-Butyl-4′-methyl-[4,5′]bipyrimidinyl-2′-ylamine] | 0.223 µM
6 | Cc1nc(N)ncc1-c1ccc(Cl)c(S(=O)(=O)NC2CC2)c1 [Example 3-1, 5-(2-Amino-4-methyl-pyrimidin-5-yl)-2-chloro-N-cyclopropyl-benzenesulfonamide] | 0.219 µM
7 | Cc1nc(N)ncc1-c1ccc(Cl)c(S(=O)(=O)N[C@H]2CC[C@@H](NC(=O)OC(C)(C)C)CC2)c1 [Example 3-17, cis-{4-[5-(2-Amino-4-methyl-pyrimidin-5-yl)-2-chloro-benzenesulfonylamino]-cyclohexyl}-carbamic acid tert-butyl ester] | 0.305 µM
8 | Cc1nc(N)ncc1-c1ccc(Cl)c(NS(=O)(=O)c2cccc(Cl)c2)c1 [Example 3-35, N-[5-(2-Amino-4-methyl-pyrimidin-5-yl)-2-chloro-phenyl]-3-chloro-benzene sulfonamide] | 0.016 µM
9 | Cc1nc(N)ncc1-c1ccc(C(F)(F)F)c(S(=O)(=O)N[C@@H]2CCC[C@@H]2O)c1 [Example 3-53, 5-(2-Amino-4-methyl-pyrimidin-5-yl)-N-((1R,2S)-2-hydroxy-cyclopentyl)-2-trifluoromethyl-benzenesulfonamide] | 0.108 µM
